This note sets out measurements from ChEMBL document CHEMBL4602617, “Discovery and optimization of heteroaryl piperazines as potent and selective PI3Kδ inhibitors” (Bioorg Med Chem Lett, 2020).

Molecules are shown by their SMILES.

In series [1] the target is T1, Phosphatidylinositol 4,5-bisphosphate 3-kinase catalytic subunit delta isoform (Homo sapiens, UniProt O00329).
T1 sequence (O00329 whole entry): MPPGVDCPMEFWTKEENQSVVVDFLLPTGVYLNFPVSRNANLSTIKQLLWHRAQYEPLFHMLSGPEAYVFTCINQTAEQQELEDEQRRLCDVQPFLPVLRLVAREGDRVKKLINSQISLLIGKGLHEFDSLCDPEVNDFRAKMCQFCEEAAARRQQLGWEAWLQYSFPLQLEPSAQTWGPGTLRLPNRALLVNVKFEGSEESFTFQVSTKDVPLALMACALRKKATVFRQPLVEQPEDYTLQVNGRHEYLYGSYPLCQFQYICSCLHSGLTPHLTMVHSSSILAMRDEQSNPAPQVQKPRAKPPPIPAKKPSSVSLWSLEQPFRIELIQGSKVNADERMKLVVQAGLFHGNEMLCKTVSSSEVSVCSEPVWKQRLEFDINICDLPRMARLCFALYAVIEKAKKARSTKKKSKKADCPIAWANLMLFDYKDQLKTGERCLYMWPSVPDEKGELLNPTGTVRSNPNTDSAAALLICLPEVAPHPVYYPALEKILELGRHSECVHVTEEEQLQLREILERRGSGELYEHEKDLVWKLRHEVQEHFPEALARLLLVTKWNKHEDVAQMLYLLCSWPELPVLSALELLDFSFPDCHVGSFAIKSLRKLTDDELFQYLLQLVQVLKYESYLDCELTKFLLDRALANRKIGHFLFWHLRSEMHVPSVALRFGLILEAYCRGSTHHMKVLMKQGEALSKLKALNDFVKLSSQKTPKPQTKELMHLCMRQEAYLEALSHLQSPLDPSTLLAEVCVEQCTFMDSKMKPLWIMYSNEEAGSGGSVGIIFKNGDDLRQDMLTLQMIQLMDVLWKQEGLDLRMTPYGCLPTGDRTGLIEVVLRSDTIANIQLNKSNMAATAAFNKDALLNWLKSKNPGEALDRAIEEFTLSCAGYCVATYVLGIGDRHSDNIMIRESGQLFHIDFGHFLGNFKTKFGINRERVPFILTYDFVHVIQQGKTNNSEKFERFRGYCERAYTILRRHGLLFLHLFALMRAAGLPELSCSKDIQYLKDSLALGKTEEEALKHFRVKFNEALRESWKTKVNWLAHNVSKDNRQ
Put plainly: Inhibition of PI3K delta in human whole blood assessed as inhibition of anti-IgE-stimulated CysLt release in basophils preincubated for 30 mins followed by anti-IgE stimulation and measured after 20 mins. Format: tissue-based.

Series [2] can be described thus: Oral bioavailability in rat at 0.5 mg/kg. The settings on record: in vivo. Format: ADME, organism-based.
The next series deals with Cytochrome P450 3A4 (Homo sapiens, UniProt P08684). Put plainly: Inhibition of CYP3A4 (unknown origin). Format: ADME.
Series [3] has as its target 5-hydroxytryptamine receptor 2C (Homo sapiens) (UniProt P28335). Put plainly: Displacement of [3H]mesulergine from human recombinant 5HT2C receptor expressed in CHOK1 cells at 10 uM incubated for 60 mins by radiometric scintillation assay relative to control. Format: cell-based. The note with it: CHO-K1. (In general: Displacement assays read how much labelled ligand stays bound in the presence of the test substance.)

The target of series [4] is Serine/threonine-protein kinase B-raf (Homo sapiens, UniProt P15056). Put plainly: Inhibition of recombinant full length human GST-tagged BRAF expressed in baculovirus expression system using tyrosine-1 peptide as substrate incubated for 60 mins in presence of ATP by Z'-LYTE assay.
Series [5] addresses Tyrosine-protein kinase ABL1 (Homo sapiens, UniProt P00519, Y253F). Put plainly: Inhibition of recombinant full length human His-tagged ABL1 Y253F mutant cytoplasmic domain expressed in baculovirus expression system using tyrosine-2 peptide as substrate incubated for 60 mins in presence of ATP by Z'-LYTE assay.
Series [6] addresses 5-hydroxytryptamine receptor 6 (Homo sapiens) (UniProt P50406). Put plainly: Displacement of [3H] lysergic acid diethylamide from full length human recombinant 5HT6 receptor expressed in HeLa/E6-7 cells at 10 uM measured after 120 mins by radiometric scintillation analysis relative to control. Format: cell-based.
Series [7] deals with Histamine H2 receptor (Homo sapiens) (UniProt P25021). Put plainly: Displacement of [125I]aminopotentidine from full length human recombinant histamine H2 receptor expressed in CHO-K1 cells at 10 uM measured after 120 mins by radiometric scintillation analysis relative to control. Format: cell-based.
For series [8], the species on record is Rattus norvegicus. Put plainly: Inhibition of rat kainate receptor at 10 uM relative to control.
The species named for series [9] is Rattus norvegicus. Put plainly: Displacement of [3H]TBOB from GABAA chloride channel receptor in Wistar rat whole brain membranes at 10 uM measured after 120 mins by radiometric scintillation analysis relative to control. Format: cell membranes. The note with it: Membrane.
The target of series [10] is B2 bradykinin receptor (Homo sapiens) (UniProt P30411). Put plainly: Displacement of [3H]bradykinin from recombinant full length human recombinant bradykinin B2 receptor expressed in Chem-1 cells at 10 uM measured after 60 mins by radiometric scintillation analysis relative to control. Format: cell-based.
The target in series [11] is Macrophage colony-stimulating factor 1 receptor (Homo sapiens, UniProt P07333). Put plainly: Inhibition of recombinant human His-tagged CSF1R catalytic domain (538 to 910 residues) expressed in baculovirus expression system using tyrosine-1 peptide as substrate incubated for 60 mins in presence of ATP by Z'-LYTE assay.
The target of series [12] is Death-associated protein kinase 3 (Homo sapiens, UniProt O43293). Put plainly: Inhibition of recombinant human full-length GST-tagged DAPK3 expressed in baculovirus expression system using FRET-labeled Ser/Thr 13 peptide as substrate measured after 1 hr in presence of ATP by Z'-lyte assay.
Series [13] has as its target Fibroblast growth factor receptor 1 (Homo sapiens, UniProt P11362). Put plainly: Inhibition of recombinant His-tagged human FGFR1 cytoplasmic domain expressed in baculovirus expression system using Tyr 04 peptide as substrate after 1 hr in presence of ATP by Z'-LYTE assay.
In series [14] the target is MAP/microtubule affinity-regulating kinase 3 (Homo sapiens, UniProt P27448). Put plainly: Inhibition of recombinant full length human GST-tagged MARK3 expressed in baculovirus expression system using serine/threonine-25 peptide as substrate incubated for 60 mins in presence of ATP by Z'-LYTE assay.
Series [15] has as its target Serine/threonine-protein kinase PLK1 (Homo sapiens, UniProt P53350). Put plainly: Inhibition of recombinant full length human His-tagged PLK1 expressed in baculovirus expression system using serine/threonine-16 peptide as substrate incubated for 60 mins in presence of ATP by Z'-LYTE assay.
The target in series [16] is Ribosomal protein S6 kinase beta-1 (Homo sapiens, UniProt P23443). Put plainly: Inhibition of recombinant human GST-tagged p70S6K catalytic domain expressed in baculovirus expression system using serine/threonine-7 peptide as substrate incubated for 60 mins in presence of ATP by Z'-LYTE assay.
The target of series [17] is Serine/threonine-protein kinase 3 (Homo sapiens, UniProt Q13188). Put plainly: Inhibition of recombinant full length human GST-tagged MST2 expressed in baculovirus expression system using serine/threonine-7 peptide as substrate incubated for 60 mins in presence of ATP by Z'-LYTE assay.
Series [18] concerns the target Non-receptor tyrosine-protein kinase TYK2 (Homo sapiens, UniProt P29597). Put plainly: Inhibition of recombinant human GST-tagged TYK2 catalytic domain (833 to 1187 residues) expressed in baculovirus expression system using tyrosine-3 peptide as substrate incubated for 60 mins in presence of ATP by Z'-LYTE assay.

Chain of MAP/microtubule affinity-regulating kinase 3 (P27448 whole entry): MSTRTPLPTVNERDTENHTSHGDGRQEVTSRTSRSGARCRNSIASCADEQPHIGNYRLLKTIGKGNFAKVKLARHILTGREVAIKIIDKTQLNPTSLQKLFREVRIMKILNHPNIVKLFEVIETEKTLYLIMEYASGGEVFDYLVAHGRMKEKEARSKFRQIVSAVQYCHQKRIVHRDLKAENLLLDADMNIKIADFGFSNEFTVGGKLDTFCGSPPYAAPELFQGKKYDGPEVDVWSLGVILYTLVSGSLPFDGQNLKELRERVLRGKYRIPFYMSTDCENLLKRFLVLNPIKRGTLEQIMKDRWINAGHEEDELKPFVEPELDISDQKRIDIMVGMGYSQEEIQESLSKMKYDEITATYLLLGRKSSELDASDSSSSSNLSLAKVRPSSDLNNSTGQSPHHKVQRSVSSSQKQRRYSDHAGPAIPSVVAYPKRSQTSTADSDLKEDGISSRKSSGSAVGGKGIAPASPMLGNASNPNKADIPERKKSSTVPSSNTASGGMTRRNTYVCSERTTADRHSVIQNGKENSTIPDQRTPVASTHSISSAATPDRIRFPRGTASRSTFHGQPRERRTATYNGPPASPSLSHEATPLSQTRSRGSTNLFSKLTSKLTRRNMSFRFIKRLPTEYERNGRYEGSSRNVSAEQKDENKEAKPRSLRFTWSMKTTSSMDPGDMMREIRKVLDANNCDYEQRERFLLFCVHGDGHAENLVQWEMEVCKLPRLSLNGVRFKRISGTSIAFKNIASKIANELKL
Chain of Fibroblast growth factor receptor 1 (P11362 whole entry, the tested form may be a part): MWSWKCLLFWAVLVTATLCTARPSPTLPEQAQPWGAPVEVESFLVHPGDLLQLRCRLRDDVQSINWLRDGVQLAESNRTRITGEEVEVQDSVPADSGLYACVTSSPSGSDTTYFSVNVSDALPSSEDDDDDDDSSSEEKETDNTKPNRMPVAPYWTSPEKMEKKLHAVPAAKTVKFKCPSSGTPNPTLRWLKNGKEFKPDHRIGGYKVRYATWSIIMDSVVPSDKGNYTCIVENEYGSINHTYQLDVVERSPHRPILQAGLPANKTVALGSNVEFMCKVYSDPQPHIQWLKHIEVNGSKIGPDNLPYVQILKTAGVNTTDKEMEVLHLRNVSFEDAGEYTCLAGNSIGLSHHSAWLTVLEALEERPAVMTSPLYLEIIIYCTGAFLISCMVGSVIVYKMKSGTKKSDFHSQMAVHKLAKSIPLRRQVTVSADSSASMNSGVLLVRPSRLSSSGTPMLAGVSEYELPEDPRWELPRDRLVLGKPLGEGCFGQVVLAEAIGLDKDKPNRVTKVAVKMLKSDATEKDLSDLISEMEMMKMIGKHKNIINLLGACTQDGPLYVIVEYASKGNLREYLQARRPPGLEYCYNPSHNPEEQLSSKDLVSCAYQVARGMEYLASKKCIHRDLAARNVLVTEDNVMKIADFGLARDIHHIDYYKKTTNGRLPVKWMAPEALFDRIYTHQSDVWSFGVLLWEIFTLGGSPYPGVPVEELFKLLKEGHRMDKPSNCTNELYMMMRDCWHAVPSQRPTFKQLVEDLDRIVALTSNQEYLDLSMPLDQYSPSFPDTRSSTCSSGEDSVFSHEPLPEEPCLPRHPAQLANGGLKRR
Chain of Serine/threonine-protein kinase 3 (Q13188 whole entry, the tested form may be a part): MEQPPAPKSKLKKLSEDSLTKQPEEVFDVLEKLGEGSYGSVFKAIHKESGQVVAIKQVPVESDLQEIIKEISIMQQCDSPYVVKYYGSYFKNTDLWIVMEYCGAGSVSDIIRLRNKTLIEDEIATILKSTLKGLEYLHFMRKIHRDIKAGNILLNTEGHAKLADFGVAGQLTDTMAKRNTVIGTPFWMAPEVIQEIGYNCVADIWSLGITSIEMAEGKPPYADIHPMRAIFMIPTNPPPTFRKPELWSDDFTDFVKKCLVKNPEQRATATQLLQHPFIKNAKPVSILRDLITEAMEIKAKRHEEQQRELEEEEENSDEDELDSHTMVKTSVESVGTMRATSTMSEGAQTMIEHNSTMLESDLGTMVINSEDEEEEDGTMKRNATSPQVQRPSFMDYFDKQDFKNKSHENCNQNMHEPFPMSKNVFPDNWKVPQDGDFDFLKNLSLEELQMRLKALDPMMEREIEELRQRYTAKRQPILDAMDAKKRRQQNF
Chain of Ribosomal protein S6 kinase beta-1 (P23443 whole entry, the tested form may be a part): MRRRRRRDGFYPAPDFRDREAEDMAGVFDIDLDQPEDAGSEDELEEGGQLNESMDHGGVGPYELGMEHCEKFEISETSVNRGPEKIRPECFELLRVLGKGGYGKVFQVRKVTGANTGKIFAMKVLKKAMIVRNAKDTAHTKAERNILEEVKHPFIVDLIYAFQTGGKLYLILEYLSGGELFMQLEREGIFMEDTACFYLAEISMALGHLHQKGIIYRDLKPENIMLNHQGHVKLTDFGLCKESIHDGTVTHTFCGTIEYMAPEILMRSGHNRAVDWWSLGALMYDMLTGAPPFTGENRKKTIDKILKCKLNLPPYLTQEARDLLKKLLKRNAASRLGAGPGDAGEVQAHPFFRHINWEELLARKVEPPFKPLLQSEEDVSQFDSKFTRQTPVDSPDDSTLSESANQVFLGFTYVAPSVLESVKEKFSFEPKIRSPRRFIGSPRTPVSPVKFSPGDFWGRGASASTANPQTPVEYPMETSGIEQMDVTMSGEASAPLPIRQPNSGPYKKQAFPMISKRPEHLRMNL
Chain of Non-receptor tyrosine-protein kinase TYK2 (P29597 whole entry, the tested form may be a part): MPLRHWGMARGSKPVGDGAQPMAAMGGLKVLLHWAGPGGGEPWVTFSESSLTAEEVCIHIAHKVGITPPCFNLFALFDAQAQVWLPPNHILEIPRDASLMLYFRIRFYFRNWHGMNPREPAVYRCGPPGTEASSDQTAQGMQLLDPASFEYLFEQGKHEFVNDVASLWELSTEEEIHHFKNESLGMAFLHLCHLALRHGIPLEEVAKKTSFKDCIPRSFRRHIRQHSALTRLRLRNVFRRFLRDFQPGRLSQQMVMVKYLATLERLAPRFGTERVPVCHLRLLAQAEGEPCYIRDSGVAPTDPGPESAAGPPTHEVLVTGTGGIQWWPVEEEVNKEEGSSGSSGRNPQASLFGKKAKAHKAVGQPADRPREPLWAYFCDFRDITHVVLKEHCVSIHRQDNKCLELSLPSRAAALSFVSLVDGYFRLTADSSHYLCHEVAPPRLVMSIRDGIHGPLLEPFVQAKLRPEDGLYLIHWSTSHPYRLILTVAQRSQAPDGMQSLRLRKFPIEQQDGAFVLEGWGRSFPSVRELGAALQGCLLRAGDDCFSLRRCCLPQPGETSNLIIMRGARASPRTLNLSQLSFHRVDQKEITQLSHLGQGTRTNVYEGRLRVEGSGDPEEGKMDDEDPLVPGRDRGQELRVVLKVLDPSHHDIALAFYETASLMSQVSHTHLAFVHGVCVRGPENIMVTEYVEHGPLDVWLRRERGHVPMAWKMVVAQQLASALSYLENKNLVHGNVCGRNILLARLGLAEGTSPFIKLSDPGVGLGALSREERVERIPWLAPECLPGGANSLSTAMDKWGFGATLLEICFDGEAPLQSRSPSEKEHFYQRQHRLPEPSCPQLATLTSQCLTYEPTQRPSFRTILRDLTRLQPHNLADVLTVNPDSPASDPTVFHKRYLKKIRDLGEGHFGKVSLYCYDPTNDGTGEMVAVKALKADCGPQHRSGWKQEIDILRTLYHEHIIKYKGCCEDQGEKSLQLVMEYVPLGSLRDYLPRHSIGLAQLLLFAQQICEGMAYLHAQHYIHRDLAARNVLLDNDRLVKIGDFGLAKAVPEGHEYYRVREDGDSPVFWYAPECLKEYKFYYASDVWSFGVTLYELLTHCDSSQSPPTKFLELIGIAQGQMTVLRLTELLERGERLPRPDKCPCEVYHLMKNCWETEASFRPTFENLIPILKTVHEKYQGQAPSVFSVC
Chain of Death-associated protein kinase 3 (O43293 whole entry, the tested form may be a part): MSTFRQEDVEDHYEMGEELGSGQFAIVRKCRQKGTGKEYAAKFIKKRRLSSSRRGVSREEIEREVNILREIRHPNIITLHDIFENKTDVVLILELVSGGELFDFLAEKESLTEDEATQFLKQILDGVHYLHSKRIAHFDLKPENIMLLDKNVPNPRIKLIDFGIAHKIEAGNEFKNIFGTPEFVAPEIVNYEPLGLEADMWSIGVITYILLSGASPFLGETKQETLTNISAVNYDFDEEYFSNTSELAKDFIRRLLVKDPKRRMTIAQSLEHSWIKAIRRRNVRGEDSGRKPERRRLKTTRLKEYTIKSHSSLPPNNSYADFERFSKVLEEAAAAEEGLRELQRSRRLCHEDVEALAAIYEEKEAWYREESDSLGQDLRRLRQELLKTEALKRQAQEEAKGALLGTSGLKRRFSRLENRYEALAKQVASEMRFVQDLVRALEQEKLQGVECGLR
Chain of 5-hydroxytryptamine receptor 2C (Homo sapiens) (P28335 whole entry): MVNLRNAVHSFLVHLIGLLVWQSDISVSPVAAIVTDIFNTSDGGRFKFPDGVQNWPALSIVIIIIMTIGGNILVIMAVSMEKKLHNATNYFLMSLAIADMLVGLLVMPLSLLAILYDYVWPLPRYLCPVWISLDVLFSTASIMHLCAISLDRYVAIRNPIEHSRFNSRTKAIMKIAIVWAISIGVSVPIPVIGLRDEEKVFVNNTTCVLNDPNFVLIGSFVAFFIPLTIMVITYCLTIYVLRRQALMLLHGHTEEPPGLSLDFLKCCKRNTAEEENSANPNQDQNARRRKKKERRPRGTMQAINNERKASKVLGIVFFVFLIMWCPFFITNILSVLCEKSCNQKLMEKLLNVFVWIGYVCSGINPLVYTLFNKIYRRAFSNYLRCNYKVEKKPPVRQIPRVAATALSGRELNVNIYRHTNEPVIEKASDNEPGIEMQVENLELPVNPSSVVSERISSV
Chain of Histamine H2 receptor (Homo sapiens) (P25021 whole entry): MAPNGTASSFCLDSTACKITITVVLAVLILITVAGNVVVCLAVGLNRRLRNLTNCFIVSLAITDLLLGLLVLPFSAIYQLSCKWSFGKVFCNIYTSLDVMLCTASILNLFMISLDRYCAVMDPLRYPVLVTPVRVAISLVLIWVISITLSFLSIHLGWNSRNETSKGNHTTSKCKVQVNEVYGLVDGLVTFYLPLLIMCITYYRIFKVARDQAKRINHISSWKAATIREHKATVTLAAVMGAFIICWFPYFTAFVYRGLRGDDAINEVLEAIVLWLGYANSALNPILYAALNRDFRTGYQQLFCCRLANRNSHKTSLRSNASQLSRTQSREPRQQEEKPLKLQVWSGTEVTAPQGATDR

The term IC50 denotes the concentration needed to halve the response being measured. For orientation: bioavailability means dose-corrected exposure relative to a reference, in per cent. As usually defined, the inhibition is the drop in the measured response relative to a control, in per cent. As to `C[C@@H]1C[C@H]1C(=O)N1CCN(c2cnc(C#N)c(-c3cnn(C)c3)n2)C[C@H]1C`, the IC50 was 65 nM in series [1]; above 50 µM against Cytochrome P450 3A4; above 100 µM in [4]; above 100 µM in [5]; above 100 µM in [11]; above 100 µM in [12]. Also, the half-inhibitory concentration (IC50) in [13], in series [14], in series [15], in series [16], in series [17] and in [18] was above 100 µM throughout. In series [2], this compound yielded a bioavailability of 79%. The inhibition in series [3] was 13%; in series [6], 7%; in series [7], 6%; in the series listed under Rattus norvegicus [8], 14%; in the series listed under Rattus norvegicus [9], -8%; in series [10], 6%.
